Source: patent publication US20070049518A1, “Novel method of treatment of inflammatory skin conditions” (priority 2005, published 2007)

Columns and labels:
human MMP-1 = biological target: T1, human MMP-1 (Homo sapiens, UniProt P03956); experiment: MMP enzyme inhibition assay, MMP-1; assay type: biochemical; details: pH 7.5, 37° C., 1 hour
T1 construct: purchased Calbiochem
T1 sequence (P03956 100-469): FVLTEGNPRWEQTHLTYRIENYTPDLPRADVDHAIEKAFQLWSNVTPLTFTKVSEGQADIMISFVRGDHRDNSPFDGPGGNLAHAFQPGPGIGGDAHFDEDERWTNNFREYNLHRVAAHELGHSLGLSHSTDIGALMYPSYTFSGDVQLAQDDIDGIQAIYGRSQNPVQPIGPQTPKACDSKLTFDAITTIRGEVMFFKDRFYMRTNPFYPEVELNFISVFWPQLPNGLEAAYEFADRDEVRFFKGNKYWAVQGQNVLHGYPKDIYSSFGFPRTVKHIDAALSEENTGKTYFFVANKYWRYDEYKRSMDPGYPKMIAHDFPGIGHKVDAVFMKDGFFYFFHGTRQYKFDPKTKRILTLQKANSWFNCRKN

human MMP-2 = biological target: T2, human MMP-2 (Homo sapiens, UniProt P08253); experiment: MMP enzyme inhibition assay, MMP-2; assay type: biochemical; details: pH 7.5, 37° C., 1 hour
T2 construct: purchased Calbiochem
T2 sequence (P08253 110-660): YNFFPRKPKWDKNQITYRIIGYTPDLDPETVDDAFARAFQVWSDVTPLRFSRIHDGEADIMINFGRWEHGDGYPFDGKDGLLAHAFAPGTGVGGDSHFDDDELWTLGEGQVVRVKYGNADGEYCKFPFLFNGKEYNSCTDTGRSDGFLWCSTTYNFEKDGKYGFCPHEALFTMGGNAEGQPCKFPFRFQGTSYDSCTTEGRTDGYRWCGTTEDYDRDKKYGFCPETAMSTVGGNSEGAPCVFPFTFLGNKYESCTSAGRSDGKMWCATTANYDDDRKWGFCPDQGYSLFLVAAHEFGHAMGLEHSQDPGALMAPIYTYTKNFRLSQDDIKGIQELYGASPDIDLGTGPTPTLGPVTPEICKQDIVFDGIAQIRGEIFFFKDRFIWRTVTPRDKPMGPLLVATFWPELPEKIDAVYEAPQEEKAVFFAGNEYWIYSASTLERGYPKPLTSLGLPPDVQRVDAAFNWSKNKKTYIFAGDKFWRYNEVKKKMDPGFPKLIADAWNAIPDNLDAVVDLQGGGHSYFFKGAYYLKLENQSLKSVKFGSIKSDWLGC

human MMP-8 = biological target: T3, human MMP-8 (Homo sapiens, UniProt P22894); experiment: MMP enzyme inhibition assay, MMP-8; assay type: biochemical; details: pH 7.5, 37° C., 1 hour
T3 construct: purchased Calbiochem

human MMP-9 = biological target: T4, human MMP-9 (Homo sapiens, UniProt P14780); experiment: MMP enzyme inhibition assay, MMP-9; assay type: biochemical; details: pH 7.5, 37° C., 1 hour
T4 construct: purchased Calbiochem

[1] = biological target: T5, metalloprotease (aureolysin) activity in Staphylococcus aureus 8325-4 culture supernatants (Staphylococcus aureus, UniProt P81177); experiment: Metalloprotease activity in S. aureus culture supernatants; assay type: biochemical
T5 construct: 4 μl S. aureus culture supernatant; endogenous in cells; host or cells: Staphylococcus aureus 8325-4 (culture supernatant)
Protocol: The culture was then centrifuged to remove the cells and the supernatant stored at −70° C. for subsequent use. […] Activity was expressed as the rate of increase in fluorescence as a function of time.

S. aureus 8325-4 = experiment: S. aureus viability, viable cell counts; assay type: cell-based, Staphylococcus aureus; details: 50 μM compound; 16 h at 37° C.
Protocol: Brain heart infusion medium (5 ml; Becton Dickinson and Co.) containing 10% skimmed milk and 1% (v/v) DMSO vehicle ±50 μM compound was inoculated with S. aureus 8325-4 (approximately 10^7 cells in tryptic soy broth) and incubated for 16 h at 37° C./220 rpm. Duplicate samples (0.1 ml) were then removed from each culture, diluted into PBS, spread onto brain heart infusion agar (1.5%) and incubated at 37° C.

recombinant human ADAM17 = biological target: T6, recombinant human ADAM17 (Homo sapiens, UniProt P78536); experiment: Selectivity profile, ADAM17; assay type: biochemical
T6 construct: purchased R&D Systems Inc

staphopain A = biological target: T7, staphopain A (Staphylococcus aureus, UniProt P81297); experiment: Selectivity profile, staphopain A; assay type: biochemical; details: read-out: inhibition at 0.1 mM, Staphopain A
T7 construct: purchased BioCentrum Ltd
Protocol: (§1) Inhibitory activity was tested in reaction mixtures (0.1 ml) containing 2% (v/v) DMSO vehicle±compound plus additions as follows. V8 protease: 90 mM MOPS (sodium) buffer pH 7.0, […] calcium chloride, 0.045% Brij 35, 10 μM Mca-Leu-Glu-Val-Asp-Gly-Trp-Lys(Dnp)-amide (Bachem) and V8 (BioCentrum Ltd; 30 ng). Staphopain A and B: 90 mM MOPS (sodium) buffer pH 7.0, 1.8 mM cysteine-HCl (pH-adjusted with NaOH), 0.045% Brij 35, 0.1 mM Z-Phe-Arg-AMC hydrochloride (Bachem) and staphopain A or B (BioCentrum Ltd; 30 ng). Human kallikrein 5: 0.1M sodium phosphate buffer pH 8.0, 0.045% Brij 35, 0.1 mM Boc-Val-Pro-Arg-AMC (Sigma) and recombinant human kallikrein 5 (R&D Systems Inc; 6 ng). Human kallikrein 7: 72 mM Tris-HCl pH 8.0, 0.033% Brij 35, 1.2 mM S-2586 (Chromogenix Instrumentation Laboratory SpA) and recombinant human kallikrein 7 (R&D Systems Inc; 0.6 μg) that had been thermolysin-activated according to the manufacturer's instructions. Human angiotensin-converting enzyme (ACE): 45 mM MES (sodium) buffer pH 6.5, 0.045% Brij 35, 10 μM Mca-[…]Dnp)-OH(R&D Systems Inc) and recombinant human ACE (R&D Systems Inc; 1.3 ng). Human cathepsin D: 0.1M sodium acetate buffer pH 3.5, 0.2M sodium chloride, 0.045% Brij 35, 10 μM Mca-Pro-Leu-Gly-Leu-Dap(Dnp)-Ala-Arg-amide (Bachem) and recombinant human cathepsin D (R&D Systems Inc; 8 ng) activated according to the manufacturer's instructions. […]

staphopain B = biological target: T8, staphopain B (Staphylococcus aureus, UniProt P0C1S6); experiment: Selectivity profile, staphopain B; assay type: biochemical; details: read-out: inhibition at 0.1 mM, Staphopain B
T8 construct: purchased BioCentrum Ltd
Protocol: as §1

T3 sequence (P22894 101-467): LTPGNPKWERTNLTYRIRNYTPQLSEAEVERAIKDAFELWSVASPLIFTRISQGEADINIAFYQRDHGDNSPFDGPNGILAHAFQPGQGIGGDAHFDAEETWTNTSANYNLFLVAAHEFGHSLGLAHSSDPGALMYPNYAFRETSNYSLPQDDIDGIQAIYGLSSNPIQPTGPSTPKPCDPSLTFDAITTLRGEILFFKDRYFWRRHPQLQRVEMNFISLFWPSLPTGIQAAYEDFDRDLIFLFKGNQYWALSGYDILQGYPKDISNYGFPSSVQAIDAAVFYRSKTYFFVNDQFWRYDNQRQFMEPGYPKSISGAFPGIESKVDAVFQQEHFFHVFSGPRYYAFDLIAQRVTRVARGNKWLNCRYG
T7 sequence (P81297 215-388): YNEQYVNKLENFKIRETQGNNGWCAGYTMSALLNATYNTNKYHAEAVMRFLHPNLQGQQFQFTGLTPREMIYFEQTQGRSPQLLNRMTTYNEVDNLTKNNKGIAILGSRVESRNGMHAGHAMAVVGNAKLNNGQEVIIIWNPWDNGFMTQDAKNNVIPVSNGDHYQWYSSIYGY
T6 sequence (P78536 215-824): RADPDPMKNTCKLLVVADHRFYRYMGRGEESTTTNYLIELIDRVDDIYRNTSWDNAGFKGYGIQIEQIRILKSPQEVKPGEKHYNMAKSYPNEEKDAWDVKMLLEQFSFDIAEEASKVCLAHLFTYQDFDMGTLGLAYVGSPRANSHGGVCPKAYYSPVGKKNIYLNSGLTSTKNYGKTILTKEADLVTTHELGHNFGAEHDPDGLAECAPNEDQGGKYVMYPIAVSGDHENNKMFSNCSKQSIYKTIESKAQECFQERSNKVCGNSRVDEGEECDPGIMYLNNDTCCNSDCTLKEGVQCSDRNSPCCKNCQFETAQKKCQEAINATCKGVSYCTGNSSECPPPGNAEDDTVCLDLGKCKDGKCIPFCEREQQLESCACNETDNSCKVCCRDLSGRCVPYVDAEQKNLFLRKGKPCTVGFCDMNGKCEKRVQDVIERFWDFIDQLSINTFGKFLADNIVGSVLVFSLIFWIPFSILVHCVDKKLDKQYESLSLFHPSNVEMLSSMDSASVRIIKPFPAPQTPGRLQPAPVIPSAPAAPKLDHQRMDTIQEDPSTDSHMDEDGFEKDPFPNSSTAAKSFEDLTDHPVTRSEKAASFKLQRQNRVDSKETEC
T5 sequence (P81177 209-509): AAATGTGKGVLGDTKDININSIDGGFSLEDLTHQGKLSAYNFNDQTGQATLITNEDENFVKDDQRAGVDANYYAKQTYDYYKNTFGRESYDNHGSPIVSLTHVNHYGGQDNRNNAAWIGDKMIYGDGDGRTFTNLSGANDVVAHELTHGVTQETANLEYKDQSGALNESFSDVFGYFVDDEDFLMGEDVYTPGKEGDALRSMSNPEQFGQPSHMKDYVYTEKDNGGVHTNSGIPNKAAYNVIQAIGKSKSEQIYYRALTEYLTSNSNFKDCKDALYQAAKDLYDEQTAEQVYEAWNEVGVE
T4 sequence (P14780 94-707): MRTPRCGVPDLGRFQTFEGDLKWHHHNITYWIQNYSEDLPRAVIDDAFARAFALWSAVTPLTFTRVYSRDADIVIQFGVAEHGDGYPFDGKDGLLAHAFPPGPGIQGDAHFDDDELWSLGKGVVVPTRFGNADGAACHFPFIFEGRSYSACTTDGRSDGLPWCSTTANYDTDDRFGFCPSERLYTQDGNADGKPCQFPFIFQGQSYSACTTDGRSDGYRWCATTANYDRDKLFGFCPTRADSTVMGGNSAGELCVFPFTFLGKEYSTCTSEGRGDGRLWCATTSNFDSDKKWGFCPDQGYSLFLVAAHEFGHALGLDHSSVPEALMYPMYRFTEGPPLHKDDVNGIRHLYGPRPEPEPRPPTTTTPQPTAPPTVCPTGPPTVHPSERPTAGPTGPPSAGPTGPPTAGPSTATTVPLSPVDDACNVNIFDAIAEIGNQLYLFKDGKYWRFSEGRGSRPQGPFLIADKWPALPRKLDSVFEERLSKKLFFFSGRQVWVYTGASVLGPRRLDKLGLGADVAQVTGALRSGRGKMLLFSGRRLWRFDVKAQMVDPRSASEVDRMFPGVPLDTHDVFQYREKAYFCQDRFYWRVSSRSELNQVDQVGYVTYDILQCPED
T8 sequence (P0C1S6 220-393): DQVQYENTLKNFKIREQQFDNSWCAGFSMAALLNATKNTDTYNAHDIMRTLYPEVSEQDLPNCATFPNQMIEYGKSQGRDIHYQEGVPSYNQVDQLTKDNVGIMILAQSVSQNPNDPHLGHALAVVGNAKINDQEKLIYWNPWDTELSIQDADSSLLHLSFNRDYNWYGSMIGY

| SMILES | IC50 (human MMP-1) [nM] | IC50 (human MMP-2) [nM] | IC50 (human MMP-8) [nM] | IC50 (human MMP-9) [nM] | IC50 [1] [nM] | Viable cell counts, Cells/ml (S. aureus 8325-4) | IC50 (recombinant human ADAM17) [nM] | inhibition at 100 µM (staphopain A) [%] | inhibition at 100 µM (staphopain B) [%] |
| --- | --- | --- | --- | --- | --- | --- | --- | --- | --- |
| CNC(=O)[C@@H](NC(=O)[C@@H](CC(=O)NO)CC(C)C)C(C)(C)C [Compound 11, (R)—N1-((S)-3,3-dimethyl-1-(methylamino)-1-oxobutan-2-yl)-N4-hydroxy-2-isobutylsuccinamide] | 2.8 | 1.9 | 1.4 | 3.6 | 3700 | 1.6 × 10^9 Cells/ml | 25 | 5 | 11 |
| CNC(=O)[C@@H](NC(=O)[C@H](CC(=O)NO)CC(C)C)C(C)(C)C [Compound 12, (S)—N1-((S)-3,3-dimethyl-1-(methylamino)-1-oxobutan-2-yl)-N4-hydroxy-2-isobutylsuccinamide] | 2300 | 2700 | 1400 | 4600 | 4300 | 1.3 × 10^9 Cells/ml | 79000 | 0 | 10 |
